Bridge positions count the residues as written; N and C are the ends. Peptide text beside a SMILES is read from it.
Tests used:
[1] = 50 μg/ml in 50 mg/ml human serum albumin, 72 hours, room temperature
[2] = in vitro; conditions: human, plasma
[3] = tested on: chimpanzees; experiment: escalating i.v. doses in adult chimpanzees: toxicity and immunogenicity; conditions: two adult chimpanzees
[4] = target: recombinant TACE (rTACE, ADAM17) (Homo sapiens, UniProt P78536); experiment: recombinant TACE fluorometric inhibition assay; type: biochemical
recombinant TACE (rTACE, ADAM17), sequence (P78536 215-824): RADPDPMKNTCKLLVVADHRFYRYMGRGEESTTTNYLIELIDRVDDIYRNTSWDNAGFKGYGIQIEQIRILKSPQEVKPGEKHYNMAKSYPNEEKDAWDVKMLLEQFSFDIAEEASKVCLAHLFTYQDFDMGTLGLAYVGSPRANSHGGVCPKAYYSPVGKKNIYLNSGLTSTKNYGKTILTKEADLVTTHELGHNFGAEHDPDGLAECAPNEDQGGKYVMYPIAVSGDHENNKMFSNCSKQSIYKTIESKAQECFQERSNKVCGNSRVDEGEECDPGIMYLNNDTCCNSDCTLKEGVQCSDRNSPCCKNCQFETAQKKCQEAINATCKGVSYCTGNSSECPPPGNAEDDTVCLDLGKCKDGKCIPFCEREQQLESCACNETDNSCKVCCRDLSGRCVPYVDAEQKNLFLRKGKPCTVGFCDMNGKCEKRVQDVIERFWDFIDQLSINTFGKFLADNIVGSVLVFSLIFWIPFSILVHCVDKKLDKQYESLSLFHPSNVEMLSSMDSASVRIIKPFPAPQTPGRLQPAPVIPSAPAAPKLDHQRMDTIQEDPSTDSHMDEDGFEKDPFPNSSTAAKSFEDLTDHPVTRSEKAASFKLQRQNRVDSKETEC

[5] = target: TACE expressed on THP-1 cells (Homo sapiens, UniProt P78536); conditions: read-out: IC50 TACE blockade on THP-1 cells; literature study (ref. 1); cited from earlier work
TACE expressed on THP-1 cells, sequence (P78536 215-824): as above

Compound: CC[C@H](C)[C@@H]1NC(=O)[C@@H]2CSSC[C@H](NC(=O)[C@H](CCCNC(=N)N)NC(=O)[C@@H]3CSSC[C@H](NC1=O)C(=O)N[C@@H]([C@@H](C)O)C(=O)N[C@@H](CCCNC(=N)N)C(=O)NCC(=O)N[C@@H](Cc1ccccc1)C(=O)N3)C(=O)N[C@@H](CC(C)C)C(=O)N[C@H]1CSSC[C@H](NC(=O)[C@H](C(C)C)NC(=O)CNC(=O)[C@H](CCCNC(=N)N)NC(=O)[C@H](CCCNC(=N)N)NC1=O)C(=O)N[C@@H](CCCNC(=N)N)C(=O)N2 [RTD-1] (cyclo(GFCRCLCRRGVCRCICTR); disulfide 3-16, 5-14, 7-12 (inferred); ring closure inferred)
- peptide unaltered [1]: more than 95%
- remaining at 72 h, 50 μg/ml [2]: > 95%
- antibody to RTD-1 (immunogenicity) [3]: Neither animal produced an antibody
- clinical chemistry and hematologic laboratory values ([3]; following all injections): within normal limits

Compound: HNP-2: human α-defensin from neutrophils (CYCRIPACIAGERRYGTCIYQGRLWAFCC)
- inhibition of rTACE [4]: neither human α-defensin (HNP-2 (SEQ_ID NO. 31), HNP-4 (SEQ_ID NO. 33)) inhibited rTACE

Compound: CNC(=O)[C@H](Cc1c[nH]c2ccccc12)NC(=O)[C@@H](CC(=O)NO)CC(C)C [GM6001]
- IC50 [5]: 5.5 µM

Compound: HNP-4: human α-defensin from neutrophils (VCSCRLVFCRRTELRVGNCLIGGVSFTYCCTRV)
- inhibition of rTACE [4]: neither human α-defensin (HNP-2 (SEQ_ID NO. 31), HNP-4 (SEQ_ID NO. 33)) inhibited rTACE

From patent publication US10512669B2, “Blockade of inflammatory proteases with cyclic peptides” (The Regents of the University of California, priority 2011, dated 2019)
